Reference: patent US20230009626A1 (ICHNOS SCIENCES S.A., priority 2018, published 2023)

Biological target: HPK1 (MAP4K1) (Homo sapiens, UniProt Q92918)
Test: FRET Assay for HPK1 (MAP4K1): one step binding assay, displacement of labeled tracer
Details: for inhibition at 1 µM: 1 μM compound; for inhibition at 1 µM / inhibition at 10 µM: FRET ratio 665/620, percent of control; for inhibition at 10 µM: 10 μM compound; for IC50: dose response curve, nonlinear regression
Procedure, shortened: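 Percent inhibition at 1.0 and 10.0 μM and IC50 by nonlinear regression were derived from loss of FRET signal versus control. The signal runs from Eu-anti-GST antibody (4 nM) bound to 10 nM HPK1 kinase to Alexa Fluor 647 Kinase Tracer 222 (20 nM), added after a 15-min on-ice compound pre-incubation. Binding then proceeded 1 h at room temperature in HEPES pH 7.5 buffer with 10 mM MgCl2, 1 mM EGTA, 0.01% Brij-35 and 3% DMSO.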

Sequence of HPK1 (MAP4K1) (Q92918 whole entry): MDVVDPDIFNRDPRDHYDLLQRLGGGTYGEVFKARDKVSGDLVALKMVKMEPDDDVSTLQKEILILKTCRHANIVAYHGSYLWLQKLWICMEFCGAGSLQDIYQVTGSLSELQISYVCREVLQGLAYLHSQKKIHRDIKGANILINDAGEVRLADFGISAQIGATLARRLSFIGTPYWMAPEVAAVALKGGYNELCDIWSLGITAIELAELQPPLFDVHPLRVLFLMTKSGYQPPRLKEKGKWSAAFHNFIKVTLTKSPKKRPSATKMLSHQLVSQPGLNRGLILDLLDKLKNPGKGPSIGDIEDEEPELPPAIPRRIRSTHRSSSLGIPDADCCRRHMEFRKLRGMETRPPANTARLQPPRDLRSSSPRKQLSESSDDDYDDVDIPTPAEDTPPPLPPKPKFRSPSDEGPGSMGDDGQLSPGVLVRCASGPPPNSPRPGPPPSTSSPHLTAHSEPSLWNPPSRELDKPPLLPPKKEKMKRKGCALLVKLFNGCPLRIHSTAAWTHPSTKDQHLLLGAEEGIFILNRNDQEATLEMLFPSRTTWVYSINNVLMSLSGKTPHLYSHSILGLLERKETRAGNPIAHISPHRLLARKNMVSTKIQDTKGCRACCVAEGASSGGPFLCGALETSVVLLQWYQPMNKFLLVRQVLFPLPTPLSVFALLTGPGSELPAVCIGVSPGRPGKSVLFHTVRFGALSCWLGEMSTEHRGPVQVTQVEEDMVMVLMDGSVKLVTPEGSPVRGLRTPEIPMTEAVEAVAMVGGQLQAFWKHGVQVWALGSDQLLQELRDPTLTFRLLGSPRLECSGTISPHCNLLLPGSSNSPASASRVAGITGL

Compound	inhibition at 1 µM [%]	inhibition at 10 µM [%]	IC50 [nM]
C/C(Nc1cc2n(n1)CCOC2)=C1/C(=O)Nc2ccc(-c3cnccc3C)cc21 [Example 193, (Z)-3-(1-((6,7-Dihydro-4H-pyrazolo[5,1-c][1,4]oxazin-2-yl)amino)ethylidene)-5-(4-methylpyridin-3-yl)indolin-2-one]	78.2	74.5	< 50
C/C(Nc1cc(C)n(C)n1)=C1/C(=O)Nc2ccc(-c3cnccc3C)cc21 [Example 194, (Z)-3-(1-((1,5-Dimethyl-1H-pyrazol-3-yl)amino)ethylidene)-5-(4-methylpyridin-3-yl)indolin-2-one]	68.6	66.6	< 50
C/C(Nc1cc(C)n(CC[C@H](C)O)n1)=C1/C(=O)Nc2cnc(-c3cnccc3C)cc21 [Example 195, (S,Z)-3-(1-((1-(3-Hydroxybutyl)-5-methyl-1H-pyrazol-3-yl)amino)ethylidene)-5-(4-methylpyridin-3-yl)-1H-pyrrolo[2,3-c]pyridin-2(3H)-one]	25.1	61.1	–
C/C(Nc1ccn(CC[C@H](C)O)n1)=C1/C(=O)Nc2cnc(-c3cnccc3C)cc21 [Example 196, (S,Z)-3-(1-((1-(3-hydroxybutyl)-1H-pyrazol-3-yl)amino)ethylidene)-5-(4-methylpyridin-3-yl)-1H-pyrrolo[2,3-c]pyridin-2(3H)-one]	65	66.3	< 50
C/C(Nc1cc(C)n(C(C)(C)C#N)n1)=C1/C(=O)Nc2cnc(-c3cnccc3C)cc21 [Example 197, (Z)-2-Methyl-2-(5-methyl-3-((1-(5-(4-Methylpyridin-3-yl)-2-oxo-1H-pyrrolo[2,3-c]pyridin-3(2H)-ylidene)ethyl)amino)-1H-pyrazol-1-yl)propanenitrile]	69.8	70.1	< 50
C/C(Nc1cc(C)n([C@H](C)C#N)n1)=C1/C(=O)Nc2cnc(-c3cnccc3C)cc21 [Example 198, (R,Z)-2-(5-Methyl-3-((1-(5-(4-methylpyridin-3-yl)-2-oxo-1H-pyrrolo[2,3-c]pyridin-3(2H)-ylidene)ethyl)amino)-1H-pyrazol-1-yl)propanenitrile]	73.8	71.1	< 50
C/C(Nc1cc(C)n([C@H](C)C#N)n1)=C1/C(=O)Nc2cnc(-c3c(C)cccc3F)cc21 [Example 199, (R,Z)-2-(3-((1-(5-(2-Fluoro-6-methylphenyl)-2-oxo-1H-pyrrolo[2,3-c]pyridin-3(2H)-ylidene)ethyl)amino)-5-methyl-1H-pyrazol-1-yl)propanenitrile]	71.7	–	< 50
C/C(Nc1cc(C)n(CC(C)(C)O)n1)=C1/C(=O)Nc2cnc(-c3c(C)cccc3F)cc21 [Example 200, (Z)-5-(2-Fluoro-6-methylphenyl)-3-(1-((1-(2-hydroxy-2-methylpropyl)-5-methyl-1H-pyrazol-3-yl)amino)ethylidene)-1H-pyrrolo[2,3-c]pyridin-2(3H)-one]	70.7	71.9	< 50
C/C(Nc1cc(C)n(CC(F)F)n1)=C1/C(=O)Nc2cnc(-c3c(C)cccc3F)cc21 [Example 201, (Z)-3-(1-((1-(2,2-Difluoroethyl)-5-methyl-1H-pyrazol-3-yl)amino)ethylidene)-5-(2-fluoro-6-methylphenyl)-1H-pyrrolo[2,3-c]pyridin-2(3H)-one]	65.7	73.6	< 50
C/C(Nc1cc(C)n(CC(C)C)n1)=C1/C(=O)Nc2cnc(-c3c(C)cccc3F)cc21 [Example 202, (Z)-5-(2-Fluoro-6-methylphenyl)-3-(1-((1-isobutyl-5-methyl-1H-pyrazol-3-yl)amino)ethylidene)-1H-pyrrolo[2,3-c]pyridin-2(3H)-one]	75.7	61	< 50
C/C(Nc1cc(C)n(CCC(C)(C)O)n1)=C1/C(=O)Nc2cnc(-c3c(C)cccc3F)cc21 [Example 203, (Z)-5-(2-Fluoro-6-methylphenyl)-3-(1-((1-(3-hydroxy-3-methylbutyl)-5-methyl-1H-pyrazol-3-yl)amino)ethylidene)-1H-pyrrolo[2,3-c]pyridin-2(3H)-one]	67.6	83	< 50
C/C(Nc1cc(C)n(CCC(C)C)n1)=C1/C(=O)Nc2cnc(-c3cnccc3C)cc21 [Example 204, (Z)-3-(1-((1-Isopentyl-5-methyl-1H-pyrazol-3-yl)amino)ethylidene)-5-(4-methylpyridin-3-yl)-1H-pyrrolo[2,3-c]pyridin-2(3H)-one]	72.7	86.1	< 50
C/C(Nc1ncc(C)s1)=C1/C(=O)Nc2cnc(-c3c(C)cccc3F)cc21 [Example 205, (Z)-5-(2-Fluoro-6-methylphenyl)-3-(1-((5-methylthiazol-2-yl)amino)ethylidene)-1H-pyrrolo[2,3-c]pyridin-2(3H)-one]	73.3	–	< 50
C/C(Nc1cc2n(n1)CC(=O)N(C(C)C)C2)=C1/C(=O)Nc2cnc(-c3c(C)cccc3F)cc21 [Example 206, (Z)-2-((1-(5-(2-Fluoro-6-methylphenyl)-2-oxo-1H-pyrrolo[2,3-c]pyridin-3(2H)-ylidene)ethyl)amino)-5-isopropyl-4,5-dihydropyrazolo[1,5-a]pyrazin-6(7H)-one]	72.4	84.9	< 50
C/C(Nc1cc(C)n(C(C)(C)C#N)n1)=C1/C(=O)Nc2cnc(-c3c(C)cccc3F)cc21 [Example 207, (Z)-2-(3-((1-(5-(2-Fluoro-6-methylphenyl)-2-oxo-1H-pyrrolo[2,3-c]pyridin-3(2H)-ylidene)ethyl)amino)-5-methyl-1H-pyrazol-1-yl)-2-methylpropanenitrile]	73.8	–	< 50
C/C(Nc1cc(C)n([C@@H](C)C#N)n1)=C1/C(=O)Nc2cnc(-c3c(C)cccc3F)cc21 [Example 208, (S,Z)-2-(3-((1-(5-(2-Fluoro-6-methylphenyl)-2-oxo-1H-pyrrolo[2,3-c]pyridin-3(2H)-ylidene)ethyl)amino)-5-methyl-1H-pyrazol-1-yl)propanenitrile]	79.7	–	< 50
C/C(Nc1cc(C)n(C[C@H](C)O)n1)=C1/C(=O)Nc2cnc(-c3c(C)cccc3F)cc21 [Example 209, (S,Z)-5-(2-Fluoro-6-methylphenyl)-3-(1-((1-(2-hydroxypropyl)-5-methyl-1H-pyrazol-3-yl)amino)ethylidene)-1H-pyrrolo[2,3-c]pyridin-2(3H)-one]	75.7	78.9	< 50
C/C(Nc1cc(C)n(C)n1)=C1/C(=O)Nc2cnc(-c3cc(F)ccc3C)cc21 [Example 210, (Z)-3-(1-((1,5-Dimethyl-1H-pyrazol-3-yl)amino)ethylidene)-5-(5-fluoro-2-methylphenyl)-1H-pyrrolo[2,3-c]pyridin-2(3H)-one]	70.8	–	< 50
C/C(Nc1cc(C)n(C(C)C)n1)=C1/C(=O)Nc2cnc(-c3cnccc3C)cc21 [Example 211, (Z)-3-(1-((1-Isopropyl-5-methyl-1H-pyrazol-3-yl)amino)ethylidene)-5-(4-methylpyridin-3-yl)-1H-pyrrolo[2,3-c]pyridin-2(3H)-one]	76.9	79.4	< 50
CCn1nc(N/C(C)=C2\C(=O)Nc3cnc(-c4c(C)cccc4F)cc32)cc1C [Example 212, (Z)-3-(1-((1-Ethyl-5-methyl-1H-pyrazol-3-yl)amino)ethylidene)-5-(2-fluoro-6-methylphenyl)-1H-pyrrolo[2,3-c]pyridin-2(3H)-one]	63.1	74.4	< 50
C/C(Nc1cc(C)n(CC(F)F)n1)=C1/C(=O)Nc2cnc(-c3cc(F)ccc3C)cc21 [Example 213, (Z)-3-(1-((1-(2,2-Difluoroethyl)-5-methyl-1H-pyrazol-3-yl)amino)ethylidene)-5-(5-fluoro-2-methylphenyl)-1H-pyrrolo[2,3-c]pyridin-2(3H)-one]	60.2	69.5	< 50
C/C(Nc1cc(C)n([C@@H](C)C#N)n1)=C1/C(=O)Nc2cnc(-c3cnccc3C)cc21 [Example 214, (S,Z)-2-(5-Methyl-3-((1-(5-(4-methylpyridin-3-yl)-2-oxo-1H-pyrrolo[2,3-c]pyridin-3(2H)-ylidene)ethyl)amino)-1H-pyrazol-1-yl)propanenitrile]	69.7	67.7	< 50
C/C(Nc1cc(C)n(C(F)F)n1)=C1/C(=O)Nc2cnc(-c3cc(F)ccc3C)cc21 [Example 215, (Z)-3-(1-((1-(Difluoromethyl)-5-methyl-1H-pyrazol-3-yl)amino)ethylidene)-5-(5-fluoro-2-methylphenyl)-1H-pyrrolo[2,3-c]pyridin-2(3H)-one]	67.3	–	< 50
C/C(Nc1cc(C)n(C[C@@H](C)O)n1)=C1/C(=O)Nc2cnc(-c3c(C)cccc3F)cc21 [Example 216, (R,Z)-5-(2-Fluoro-6-methylphenyl)-3-(1-((1-(2-hydroxypropyl)-5-methyl-1H-pyrazol-3-yl)amino)ethylidene)-1H-pyrrolo[2,3-c]pyridin-2(3H)-one]	72.1	68.6	< 50
C/C(Nc1cc2n(n1)CCOC2)=C1/C(=O)Nc2cnc(-c3cc(F)ccc3C)cc21 [Example 218, (Z)-3-(1-((6,7-Dihydro-4H-pyrazolo[5,1-c][1,4]oxazin-2-yl)amino)ethylidene)-5-(5-fluoro-2-methylphenyl)-1H-pyrrolo[2,3-c]pyridin-2(3H)-one]	77.7	–	< 50
